One substance from patent publication US10618937B2, “Method of treating Alzheimer's disease” (INDUSTRY-ACADEMIC COOPERATION FOUNDATION GYEONGSANG …, priority 2016, dated 2020) can be followed below.

One assay deals with APP/PS1 mice. In words: Thioflavin S staining / immunofluorescence analysis of amyloid plaques in brain. The assay is classed as in vivo. Particulars: IP once every 2.5 days for 45 days. As to the method:
Adiponectin receptor-activating novel peptide (5AA1) was IP administered to 10 week old APP/PS1 mice once every 2.5 days for 45 days, and then, to prepare a slide section, the brains of the mice were fixed by transcardial perfusion of ice-cold 4% paraformaldehyde. The brains were fixed in 4% paraformaldehyde for 72 hours, and then, transferred to 20% sucrose and maintained at a temperature of 4° C. for 72 hours. The brains were placed in an optimal cutting temperature (OCT) compound (A.O., USA), frozen in liquid nitrogen, and sectioned into coronal plane (14 μm) in CM 3050C cryostat (Leica, Germany). Pictures of tissue sections were taken on ProbeOn Plus charged slides (Fisher, USA).
Immunofluorescence analysis was performed by using minor modifications of the method described in the existing study (Shah et al., 2014; Shah et al., 2015). Slides containing tissue sections were washed twice with a 0.01 M PBS solution for 15 minutes. Proteinase K was added to the tissue sections, which were then cultured at a temperature of 37° C. for 5 minutes. The tissue sections were then reacted in a blocking solution (5% normal goat serum, 0.3% Triton X-100, PBS) for 1 hour. The slides were reacted overnight with the primary antibody (the same antibody used in the ‘Western blot analysis’) and then reacted with secondary TRITC- or FITC-conjugated antibodies (diluted 1:50 in PBS; Santa Cruz) at room temperature for 90 minutes. The slides were dipped in Prolong Antifade reagent (Molecular Probe, Eugene, Oreg., USA) and stained. All stained slides were analyzed with a confocal laser scanning microscope (Flouview FV 1000). Amyloid plaques were visualized in brain slices after Thioflavin S staining. The brain slices were washed twice with 0.01 M PBS for 10 minutes, and then immersed in fresh 1% Thioflavin S solution at room temperature for 10 minutes. The brain slices were then immersed in 70% ethanol for 5 minutes, then washed twice with water, counterstained with propidium iodide (PI) and covered with cover glass.
Morphological analysis and signals were analyzed with Image J software (open source software provided by the US NIH), and the analysis results were expressed as IOD (Integral Optical Density). The ratio of the amyloid deposit site in the proposed area was also quantified by using Image-J software.

The next assay deals with APP/PS1 model mice. In words: Morris water maze test in APP/PS1 model mice. The class given is in vivo. The following applies: APP/PS1 model mice treated, compared to APP/PS1 model mice. How it is done:
Male C57BL/6J wild type mice and double transgenic B6.Cg-Tg (APPswe, PSENdE9) 85Dbo Mmjax (APP/PS1) AD-model mice were obtained from Jackson Laboratories (Bar Harbor, Me., USA). The brains of the double transfected mice express Swedish mutation-containing chimeric mouse-human amyloid precursor protein (Mo/HuAPP695swe) and mutant human presenilin 1 protein (PS1-dE9). The mice were fed with an unlimited supply of food and water at an animal breeding ground of a university at a temperature of 23° C., at the relative humidity of 60±10% and in the black and light cycle of 12 h/12 h. […]
The Morris Underwater Maze Test System was constructed as a circular water tank with a diameter of 100 cm and a height of 40 cm containing 15.5 cm depth of water (temperature of 23±1° C.) which was opaque with white ink added. […] The delay time for escaping from the water maze (the time to find the hidden escape platform) was calculated for each trial. […] For the probe experiment, the platform was removed, each mouse was allowed to freely swim for 60 seconds, the amount of time the mouse spent in the target quadrant was measured, and the number of platform positions the mouse passed by (where the platform was located during the hidden platform training). […] All data were recorded by using video-tracking software (SMART, Panlab Harward Apparatus, Bioscience Company, Holliston, Mass., USA).

As to “RGPCG (adiponectin receptor-activating peptide) [5AA1]”, the “amyloid β plaque in the cortex and hippocampus of the brain” value in the assay on APP/PS1 mice is listed as “remarkably reduced”. Also, the “time for staying where the platform was located (probe test)” value in the assay with APP/PS1 model mice is “increased”.
